According to the SangsterLogP compilation:

How the values were obtained:
[1] = method code SF-AS, from DOI: 10.2307/3577276, PMID: 2913608
[2] = method code SF-AS, from DOI: 10.1248/cpb.21.2309, PMID: 4775970; settings: pH 3.3
[3] = method code SF, from DOI: 10.1002/qsar.19920110207; settings: pH 1.0
[4] = method code SF-AS, from DOI: 10.1016/0005-2728(86)90252-5, PMID: 3015209; settings: pH 7.2
[5] = method code SF-AS, from DOI: 10.1016/0006-2952(75)90156-2, PMID: 235934; settings: pH 7.4
[6] = method code SF-AS, from DOI: 10.1080/09553007214550551, PMID: 4537457
[7] = method code SF-RC, from DOI: 10.1002/ps.2780300102; settings: pH 2.0
[8] = method code SF-HPLC, from DOI: 10.1002/jps.2600841008, PMID: 8801331
[9] = method code SF-RC, from DOI: 10.1182/blood.v76.11.2389.bloodjournal76112389, PMID: 2257308; settings: pH 7.4
[10] = method code SF-AS, from DOI: 10.1021/jm00162a004, PMID: 3023612
[11] = method code SF-AS, from DOI: 10.1021/jm00299a013, PMID: 5458368
[12] = not given; remark: listed apart in the source
[13] = not given; remark: listed apart in the source
[14] = method code SF-RC, from DOI: 10.1248/cpb.38.3099, PMID: 2085895; settings: pH 7.4
[15] = not given; remark: listed apart in the source
[16] = method code SF-AS, from DOI: 10.1248/cpb.15.1705, PMID: 5583828; settings: pH 1.1
[17] = method code SF, from DOI: 10.1002/ps.2780340212; settings: pH 7.0
[18] = not given; remark: listed apart in the source
[19] = not given; remark: listed apart in the source
[20] = method code SF-HPLC, from DOI: 10.1248/cpb.43.1894
[21] = method code SF-AS, from DOI: 10.1135/cccc19822514; settings: pH 3.5
[22] = not given; remark: listed apart in the source
[23] = not given; remark: listed apart in the source
[24] = method code SF-EPR, from DOI: 10.1016/0003-9861(82)90097-2, PMID: 6284047; settings: pH 7.4
[25] = not given; remark: listed apart in the source
[26] = method code SF-AS, from DOI: 10.1111/j.2042-7158.1980.tb13082.x, PMID: 6110743
[27] = method code SF-GLC, from DOI: 10.1016/0147-6513(82)90020-3, PMID: 7106034
[28] = not given; remark: listed apart in the source
[29] = method code SF-AS, from DOI: 10.1016/j.bmc.2007.10.035, PMID: 18029186; settings: pH 7.4
[30] = pH 1.0
[31] = method code SF-AS, from DOI: 10.1016/j.bmc.2008.07.057, PMID: 18706818; settings: pH 7.4
[32] = method code SF-AS, from DOI: 10.1016/0021-9673(91)80064-n
[33] = method code SF-RC, from DOI: 10.1016/s0026-895x(25)10639-1, PMID: 1170492
[34] = not given; remark: listed apart in the source
[35] = not given; remark: listed apart in the source
[36] = method code SF-HPLC, from DOI: 10.1016/0378-5173(88)90220-7; settings: pH 7.4
[37] = method code SF, from PMID: 2704; settings: pH 1.0

## CON=C(C#N)C(=O)NC(CCS(C)(=O)=O)C(=O)O (stereo not given)
other
  logP: -0.52

## CON=C(C#N)C(=O)N[C@@H](CCSC)C(=O)O
other
  logP: 0.86

## O=[N+]([O-])c1ccccc1NS(=O)(=O)c1[nH]cnc1[N+](=O)[O-]
[1]
  logP: 1.2

## Cc1ccc(C)c(C(=O)NS(=O)(=O)c2ccc(N)cc2)c1
[2]
  logD: 2.19

## CC(=O)c1ccc(C(=O)O)cc1
[3]
  logD: 1.61

## N#CC(C#N)=NNc1ccc([N+](=O)[O-])cc1Cl
[4]
  logD: 2

## CCCCOc1ccc([N+](=O)[O-])cc1
[5]
  logD: 3.5

## COC(=O)c1ccccc1NS(=O)(=O)c1[nH]cnc1[N+](=O)[O-]
[1]
  logP: 1.6

## CC(=O)c1ccc(C)cc1
[6]
  logP: 2.28

## COc1ccc(C(C)=O)cc1
[6]
  logP: 1.82

## Cc1cccc(C)c1NN=C(C#N)C#N
[4]
  logD: 2.1

## NC(=O)Nc1ccc(CC(=O)O)cc1
[7]
  logD: 0.01

## CCOC(=O)C1=C(COCCN)NC(C)=C(C(=O)OC)C1c1ccccc1Cl (stereo not given)
[8]; pH 11.0
  logD: 3.09

## CCc1c(O)c(=O)ccn1C
[9]
  logD: -0.3

## CCCCC1(C)CCC=[N+]1[O-] (stereo not given)
[10]
  logP: 0.04

## CCCS(=O)(=O)CCn1c([N+](=O)[O-])cnc1C
[11]
  logP: 0.23

## CNC(=O)N(C)c1nc2ccccc2s1
[12]
  logP: 2.38

## O=NN(CCCl)C(=O)NC1CCCCC1O (stereo not given)
[13]
  logP: 1.6

## CNC(=S)N/N=C(C)\C(C)=N/NC(=S)NC
[14]
  logD: 0.67

## CNC(=O)OCc1cccc(I)c1[N+](=O)[O-]
[15]
  logP: 1.64

## O=NN(CCCl)C(=O)NC1CCCC(O)C1 (stereo not given)
[13]
  logP: 1.28

## CNC(=S)NN=C(C)CC(C)=NNC(=S)NC
[14]
  logD: 2.66

## CCC1(CCC(C)C)C(=O)NC(=O)NC1=O
[16]
  logD: 2.07

## CC(C)(C)C(=O)C(Oc1ccc(Cl)cc1)n1cncn1 (stereo not given)
[17]
  logD: 2.9

## Clc1cc2c(Cl)c(Cl)c(Cl)c(Cl)c2c(Cl)c1Cl
[18]
  logP: 7.33

## CN(C(=O)NC(C)(C)c1ccccc1)c1ccccc1
[19]
  logP: 3.01

## CSC(=S)C1=C(SC)CCC1
[20]
  logP: 3.59

## CCNc1nc(Cl)nc(NC(C)CC)n1 (stereo not given)
[12]
  logP: 3.02

## O=C(O)CCc1ccccc1
[21]
  logD: 1.91

## O=C(NCCO)c1cccnc1
[22]
  logP: -0.11

## FC(F)(F)C1(F)C(F)(F)C(F)(F)C(F)(N2C(F)(F)C(F)(F)C(F)(F)C(F)(F)C2(F)F)C(F)(F)C1(F)F (stereo not given)
[23]
  logP: 7

## CC(C)Oc1ccc([N+](=O)[O-])cc1
[5]
  logD: 2.8

## CC1(C)CCCC(C)(C)N1O
[24]
  logD: 1.81

## N#CC(C#N)=NNc1cccc(O)c1
[25]; pH 7.2
  logD: 1.48

## CCC1(C)OCC(C)(C)N1[O] (stereo not given)
[24]
  logD: 1

## C=CCC1(CC)C(=O)NC(=O)NC1=O
[16]
  logD: 0.95

## FC1(F)C(F)(F)C(F)(F)C2(F)C(F)(F)C(F)(F)C(F)(F)C(F)(F)C2(F)C1(F)F (stereo not given)
[23]
  logP: 6

## CCCOc1cccc(O)c1
[26]
  logP: 2.59

## O=S1OCC2C(CO1)C1(Cl)C(Cl)=C(Cl)C2(Cl)C1(Cl)Cl (stereo not given)
[27]
  logP: 3.83

## c1ccc(Nc2ccc3ccccc3c2)cc1
[28]
  logP: 4.38

## CC(=O)OC[C@H]1O[C@H](OCCN(C)C(=O)Cn2ccnc2[N+](=O)[O-])[C@@H](OC(C)=O)[C@@H](OC(C)=O)[C@@H]1OC(C)=O
[29]
  logD: -1.16

## CC(Oc1cc(Cl)c(Cl)cc1Cl)C(=O)O (stereo not given)
[30]
  logD: 3.8

## COc1ccc(C(=CSC)C(=S)SC)cc1
[20]
  logP: 4.1

## CCCCC1(C(N)=O)CCC=[N+]1[O-] (stereo not given)
[31]
  logD: -0.18

## CNC(=O)OCc1ccc(I)cc1[N+](=O)[O-]
[15]
  logP: 1.67

## COCCn1ccc(=O)c(O)c1C
[9]
  logD: -0.52

## C=CC(=O)NCCN1CCOCC1
[32]
  logP: -0.55

## COc1nc(C)nc(NC(=O)NS(=O)(=O)c2ccccc2Cl)n1
[7]
  logD: 1.54

## CC(CSCC(C)=NNC(N)=S)=NNC(N)=S
[33]
  logP: 0.7

## O=C(O)CCc1cccc(I)c1
[34]
  logP: 2.68

## CCOC(=O)c1cccc(O)c1
[35]
  logP: 2.47

## CNC(=S)NN=C(C)CSCC(C)=NNC(=S)NC
[33]
  logP: 1.4

## CNS(=O)(=O)c1ccc(C)cc1
[36]
  logD: 1.28

## CCSc1nnc(C(C)(C)C)c(=O)n1N
[19]
  logP: 2.08

## C=CC(=O)NCCCN1CCOCC1
[32]
  logP: -0.52

## CC(=O)c1cccc(C(=O)O)c1
[3]
  logD: 1.56

## O=C(O)C(c1ccc(Cl)cc1)c1ccc(Cl)cc1
[30]
  logD: 4.64

## Cc1ncc([N+](=O)[O-])n1CCCS(C)(=O)=O
[11]
  logP: -1

## CC(C(=O)O)c1ccccc1 (stereo not given)
[21]
  logD: 1.8

## CCN(CC)C(=S)SSC(=S)N(CC)CC
[27]
  logP: 3.88

## CN(CCO)C(=O)Cn1ccnc1[N+](=O)[O-]
[29]
  logD: -1.25

## Oc1cccc2ncccc12
[8]; pH 7.4
  logD: 2.13

## CCCOC(=O)c1ccccc1Cl
[35]
  logP: 3.45

## O=C(O)CNC(=O)c1cccc(I)c1
[34]
  logP: 1.44

## N#CC(C#N)=NNc1ccc(C(=O)CCl)cc1
[25]; pH 3.0
  logD: 2.15

## CC(C)NC(=O)c1cccnc1
[22]
  logP: 0.59

## COc1ccc(C=O)cc1C
[37]
  logD: 2.23

## Clc1cc2c(Cl)cc(Cl)c(Cl)c2c(Cl)c1Cl
[18]
  logP: 6.87

## Cc1ccc(NC(N)=O)cc1
[17]
  logD: 0.8

## CCCCCOc1cccc(O)c1
[26]
  logP: 3.63

## COC(=O)COc1ccccc1
[37]
  logD: 1.41

## CCCC1(C(N)=O)CCC=[N+]1[O-] (stereo not given)
[31]
  logD: -0.68

## Cc1ccc(S(=O)(=O)N(C)C(=O)c2ccccc2)cc1
[36]
  logD: 2.95

## [O-][N+]1=CCCC12CCCC2
[10]
  logP: -0.1

## Cc1nnc(NS(=O)(=O)c2ccc(N)cc2)s1
[2]
  logD: 0.26
